Data: patent US20240239752A1, “BICYCLIC HETEROAROMATIC INHIBITORS OF KLK5” (BioCryst Pharmaceuticals, Inc., priority 2021, published 2024)

Target: T1, recombinant human KLK5 (Homo sapiens, UniProt Q9Y337)
T1 construct: purchased Novoprotein or R&D Systems C415 or 1108-SE
T1 sequence (Q9Y337 23-293): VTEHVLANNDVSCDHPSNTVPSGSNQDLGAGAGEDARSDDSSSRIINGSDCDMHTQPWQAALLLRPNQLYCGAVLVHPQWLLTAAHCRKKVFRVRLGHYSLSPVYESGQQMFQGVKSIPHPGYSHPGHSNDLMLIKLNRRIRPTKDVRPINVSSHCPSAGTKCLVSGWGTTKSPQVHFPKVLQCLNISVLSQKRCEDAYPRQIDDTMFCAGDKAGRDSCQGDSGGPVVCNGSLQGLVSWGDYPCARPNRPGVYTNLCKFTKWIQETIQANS
Assay: Kallikrein (KLK) 5 enzymatic assay (Boc-VPR-AMC fluorogenic substrate)
Type: biochemical
Conditions: recombinant human KLK5 0.1 μg/well, Boc-VPR-AMC 100 μM, pH 7.5, room temperature, 1% DMSO; tested a minimum of three times
How it was run: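 Recombinant human KLK5 (0.1 μg/well) was preincubated with compound at room temperature in 0.1 M NaH2PO4, pH 7.5, 1% DMSO, then started with 100 μM Boc-VPR-AMC. The rate was followed at 380/460 nm, and IC50 came from percent inhibition relative to enzyme alone, with at least three runs.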

Row | IC50 [µM] | SMILES
1 | < 1 | CCn1nc(COc2ccccc2CC(=O)O)c2cc(-c3ccc4ccnc(N)c4c3)ccc21 [Compound 179b, 2-(2-((5-(1-aminoisoquinolin-7-yl)-1-ethyl-1H-indazol-3-yl)methoxy)phenyl)acetic acid]
2 | < 1 | Nc1nccc2c(-c3ccc4c(c3)C(COc3ccccc3CC(=O)O)CC43CCCC3)cccc12 (centres unmarked) [Compound 403a, 2-(2-((5′-(1-aminoisoquinolin-5-yl)-2′,3′-dihydrospiro[cyclopentane-1,1′-inden]-3′-yl)methoxy)phenyl)acetic acid]
3 | > 10 | Cc1ccc(CC(=O)O)c(OCc2c3cc(-c4ccc5ccnc(N)c5c4)ccc3nn2C2CCCCC2)c1 [Compound 15d, 2-(2-((5-(1-aminoisoquinolin-7-yl)-2-cyclohexyl-2H-indazol-3-yl)methoxy)-4-methylphenyl)acetic acid]
4 | < 1 | Cc1cccc(OC2CC3(CCN(C(=O)OC(C)C)CC3)c3ccc(-c4cccc5c(N)nccc45)cc32)c1CC(=O)O (centres unmarked) [Compound 384b, 2-(2-((5-(1-aminoisoquinolin-5-yl)-1′-(isopropoxycarbonyl)-2,3-dihydrospiro[indene-1,4′-piperidin]-3-yl)oxy)-6-methylphenyl)acetic acid]
5 | 1 to 10 | COc1ccc(CC(=O)O)c(OC2c3cc(-c4ccc5ccnc(N)c5c4)ccc3CC2(C)C)c1 (centres unmarked) [Compound 441b, 2-(2-((6-(1-aminoisoquinolin-7-yl)-2,2-dimethyl-2,3-dihydro-1H-inden-1-yl)oxy)-4-methoxyphenyl)acetic acid]
6 | < 1 | Nc1nccc2ccc(-c3ccc4c(c3)c(COc3ccccc3CC(=O)O)nn4C3CCCCC3)cc12 [Compound 48d, 2-(2-((5-(1-aminoisoquinolin-7-yl)-1-cyclohexyl-1H-indazol-3-yl)methoxy)phenyl)acetic acid]
7 | < 1 | COc1c(C(=N)N)cccc1-c1ccc2c(c1)c(COc1ccccc1CC(=O)O)nn2C1CCCC1 [Compound 263d, 2-(2-((5-(3-carbamimidoyl-2-methoxyphenyl)-1-cyclopentyl-1H-indazol-3-yl)methoxy)phenyl)acetic acid]
8 | 1 to 10 | CC(C)n1nc(COc2ccccc2CC(=O)O)c2cc(-c3cccc4c(N)n[nH]c34)ccc21 [Compound 31c, 2-(2-((3′-amino-1-isopropyl-1H, 1′H-[5,7′-biindazol]-3-yl)methoxy)phenyl)acetic acid]
9 | 1 to 10 | Nc1nccc2c(-c3ccc4c(c3)[C@@H](Oc3ccccc3CC(=O)O)C[C@@H]4N3CCCCC3)cccc12 [Compound 459g, (−)-trans 2-(2-(((1S,3S)-6-(1-aminoisoquinolin-5-yl)-3-(piperidin-1-yl)-2,3-dihydro-1H-inden-1-yl)oxy)phenyl)acetic acid]
10 | < 1 | Nc1nccc2c(-c3ccc4c(c3)c(COc3ccccc3CC(=O)O)nn4C3CCN(CCO)C3)cccc12 (centres unmarked) [Compound 298c, 2-(2-((5-(1-aminoisoquinolin-5-yl)-1-(1-(2-hydroxyethyl)pyrrolidin-3-yl)-1H-indazol-3-yl)methoxy)phenyl)acetic acid]
11 | < 1 | Nc1nccc2ccc(-c3ccc4c(c3)c(COc3ccccc3CC(=O)O)nn4C3CCN(CC(=O)O)C3)cc12 (centres unmarked) [Compound 297d, 2-(2-((5-(1-aminoisoquinolin-7-yl)-1-(1-(carboxymethyl)pyrrolidin-3-yl)-1H-indazol-3-yl)methoxy)phenyl)acetic acid]
12 | < 1 | N=C(N)c1cccc(-c2ccc3nn(C4CCCC4)c(COc4ccccc4CC(=O)O)c3c2)c1 [Compound 22c, 2-(2-((5-(3-carbamimidoylphenyl)-2-cyclopentyl-2H-indazol-3-yl)methoxy)phenyl)acetic acid]
13 | < 1 | COC(=O)N1CCC2(CC1)CC(Oc1cc(C#N)ccc1CC(=O)O)c1cc(-c3ccc4ccnc(N)c4c3)ccc12 (centres unmarked) [Compound 410d, 2-(2-((5-(1-aminoisoquinolin-7-yl)-1′-(methoxycarbonyl)-2,3-dihydrospiro[indene-1,4′-piperidin]-3-yl)oxy)-4-cyanophenyl)acetic acid]
14 | < 1 | COCCN1CCC(n2nc(COc3ccccc3CC(=O)O)c3cc(-c4cccc5c(N)nccc45)ccc32)C1 (centres unmarked) [Compound 303c, 2-(2-((5-(1-aminoisoquinolin-5-yl)-1-(1-(2-methoxyethyl)pyrrolidin-3-yl)-1H-indazol-3-yl)methoxy)phenyl)acetic acid]
15 | < 1 | Nc1nccc2c(-c3ccc4nn(C5CCC5)c(COc5cc(F)ccc5CC(=O)O)c4c3)cccc12 [Compound 150b, 2-(2-((5-(1-aminoisoquinolin-5-yl)-2-cyclobutyl-2H-indazol-3-yl)methoxy)-4-fluorophenyl)acetic acid]
16 | < 1 | CC(C)OC(=O)N1CCC2(CC1)CC(Oc1ccccc1CC(=O)O)c1cc(-c3cccc4c(N)nccc34)ccc12 (centres unmarked) [Compound 375b, 2-(2-((5-(1-aminoisoquinolin-5-yl)-1′-(isopropoxycarbonyl)-2,3-dihydrospiro[indene-1,4′-piperidin]-3-yl)oxy)phenyl)acetic acid]
17 | < 1 | COC(=O)N1CCC2(CC1)C[C@@H](Oc1ccccc1CC(=O)O)c1cc(-c3ccc4ccnc(N)c4c3)ccc12 [Compound 399b, (R)-2-(2-((5-(1-aminoisoquinolin-7-yl)-1′-(methoxycarbonyl)-2,3-dihydrospiro[indene-1,4′-piperidin]-3-yl)oxy)phenyl)acetic acid]
18 | < 1 | Nc1nccc2c(-c3ccc4c(c3)C(Oc3ccccc3CC(=O)O)CC43CCOCC3)cccc12 (centres unmarked) [Compound 351b, 2-(2-((5-(1-aminoisoquinolin-5-yl)-2,2′,3,3′,5′,6′-hexahydrospiro[indene-1,4′-pyran]-3-yl)oxy)phenyl)acetic acid]
19 | < 1 | CCc1cccc(OCc2nn(C3CCC3)c3ccc(-c4cccc5c(N)nccc45)cc23)c1CC(=O)O [Compound 181b, 2-(2-((5-(1-aminoisoquinolin-5-yl)-1-cyclobutyl-1H-indazol-3-yl)methoxy)-6-ethylphenyl)acetic acid]
20 | 1 to 10 | Nc1nccc2c(-c3ccc4nn([C@H]5CCN(CCO)C5)c(COc5ccccc5CC(=O)O)c4c3)cccc12 [Compound 115b, (S)-2-(2-((5-(1-aminoisoquinolin-5-yl)-2-(1-(2-hydroxyethyl)pyrrolidin-3-yl)-2H-indazol-3-yl)methoxy)phenyl)acetic acid]
21 | < 1 | Cc1cccc(OCc2cn(C3CCOC3)c3ncc(-c4cccc5c(N)nccc45)cc23)c1CC(=O)O (centres unmarked) [Compound 294c, 2-(2-((5-(1-aminoisoquinolin-5-yl)-1-(tetrahydrofuran-3-yl)-1H-pyrrolo[2,3-b]pyridin-3-yl)methoxy)-6-methylphenyl)acetic acid]

Row | SMILES | IC50 [µM]
22 | Cc1cccc(OC2CC3(CCN(C(=O)OCC(C)C)CC3)c3ccc(-c4ccc5ccnc(N)c5c4)cc32)c1CC(=O)O (centres unmarked) [Compound 450c, 2-(2-((5-(1-aminoisoquinolin-7-yl)-1′-(isobutoxycarbonyl)-2,3-dihydrospiro[indene-1,4′-piperidin]-3-yl)oxy)-6-methylphenyl)acetic acid] | < 1
23 | CC(C)(C)OC(=O)N1CCC2(CC1)C[C@@H](Oc1ccccc1CC(=O)O)c1cc(-c3ccc4ccnc(N)c4c3)ccc12 [Compound 395b, (R)-2-(2-((5-(1-aminoisoquinolin-7-yl)-1′-(tert-butoxycarbonyl)-2,3-dihydrospiro[indene-1,4′-piperidin]-3-yl)oxy)phenyl)acetic acid] | < 1
